“Also recorded” adds a separate entry of the source.
Legend:
[1] = test system: human pluripotent stem cells; test: Factor criticality analysis, stage 1 recipe (dynamic profile analysis); assay type: cell-based; settings: other five stage 1 factors present, FIG. 11
Source text: To assess the impact of the elimination of each validated factor, dynamic profile analysis was used and compared the expression level of genes of interest in absence of each finalized factor while others are present. […] When Purmorphamine was removed, levels of FEZF2 and SIX3 were decreased to 1000 and below 3000, while levels of OTX2 increased to 6500.

[2] = test system: forebrain-committed neural stem cells; test: Factor criticality analysis, stage 2 recipe; assay type: cell-based, human; settings: other three stage 2 factors present
Procedure: To assess the impact of the elimination of each validated factor, dynamic profile analysis was used and compared the expression level of genes of interest in absence of each finalized factor while others are present.
In the stage 2 recipe, each of the four finalized factors were removed while the other three factors remained present and expression levels of NKX2-1, PAX6 and NKX2-2 were assessed compared to presence of all four factors. Absence of PD0325901 reduced the levels of NKX2-1 and NKX2-2 while increasing PAX6 from 5000 to 3200, 100 to 0 and 0 to 5000, respectively. […] Removing XAV939 reduced the levels of NKX2-1 from 5000 to 3000, while increasing both PAX6 and NKX2-2 to 10000 and 200, respectively. Another observation was the interaction between XAV939 and Purmorphamine. In the absence of XAV939, the impact of Purmorphamine on NKX2-1 became negative and, as it is shown in interaction plot of FIG. 14, the level of NKX2-1 is higher when both factors are present.

[3] = test system: forebrain-committed neural stem cells; test: HD-DoE stage 2, 12-factor experiment: NKX2-1 expression; assay type: cell-based, human; settings: model / dynamic profile, in words
Procedure: To further guide the differentiation of forebrain-committed neural stem cells to ventral forebrain neural stem cells at stage 2, a HD-DoE experiment was performed for 3 days after termination of stage 1 treatment. […] This 12-factor experiment included LDN193189, BMP7, PD0325901, MK2206, A8301, XAV939, CHIR99021, Purmorphamine, SANT-1, AGN193109, TTNPB and GSI-XX. […]

[4] = test system: human pluripotent stem cells; test: HD-DoE stage 1, first 12-factor experiment: gene expression (qPCR) after 3-day treatment; assay type: cell-based
Source text: This example utilizes a method of High-Dimensional Design of Experiments (HD-DoE), as previously described in Bukys et al. (2020) […] 23:101346. The method employs computerized design geometries to simultaneously test multiple process inputs and offers mathematical modeling of a deep effector/response space. The method allows for finding combinatorial signaling inputs that control a complex process, such as during cell differentiation. It allows testing of multiple plausible critical process parameters, as such parameters impact output responses, such as gene expression. Because gene expression provides hallmark features of the phenotype of, for example, a human cell, the method can be applied to identify, and understand, which signaling pathways control cell fate. In the current example, the HD-DOE method was applied with the intent to find conditions for induction of […] neural progenitor-expressed genes, directly from the pluripotent stem cell state. To develop the recipe for each stage, the impact of agonists and antagonists of multiple signaling pathways (herein called effectors) on the expression of two sets of 53 pre-selected genes, after a 3-day treatment, has been tested and modeled. These effectors are small molecules or proteins that are commonly used during stepwise differentiation of stem cells to specific fates. Choice of the effectors were based on current literature on neural induction in forebrain region of developing brain and differentiation of stem cells to neural progenitors. To test the effectors, experiments with at least 8 factors were designed that can assess the response of cells to 48 or more different combinations of effectors in a range of concentrations. To analyze the models, we focused on expression of genes involved in development and patterning of the anterior neuroectoderm and forebrain including OTX2 (Hoch et al. (2015) Cell Reports 12:482-494), SIX3 (Lagutin et al. (2003) Genes & Development 17:368-379) and FEZF2 (Zhang et al. (2014) Development 141:4794-[…]). At later stages we focused on dorsoventral patterning of telencephalon and gene expressed in ventral forebrain including NKX2-1 and absence of PAX6 which is a dorsal forebrain marker (Stoykova et al. (2000) J. Neurosci. 20:8042-8050). The impact of each effector on gene expression level is defined by a parameter called factor contribution that is calculated for each effector during the modeling. To identify the recipe for stage 1 of differentiation, 96 different combinations of effectors generated using Design-of-Experiments compression through D-optimality were robotically prepared. The effector combinations were prepared in a basal media and were subsequently added to the cells, which were then allowed to differentiate. Three days later RNA extraction was performed, and gene expression was obtained using quantitative PCR analysis. The data were normalized and modeled using partial least squares regression analysis to the effector design, resulting in the generation of gene-specific models, which after model tuning for maximal Q2 predictive power, provided explanation of the effectors ability to control the expression of individual genes, combinatorically, and individually. Solutions within the tested space could then be explored to address desirability. Optimizing for maximal expression of SIX3 at 3300 and FEZF2 1355 expression values led to robust solutions. This model was derived from testing 12 effectors including AGN193109, LDN193189, CHIR99021, XAV939, IGF2, Purmorphamine, 4-oxo-RA, TTNPB, SR11237, FGF8, PD0325901 and […]. […] The model was also optimized for maximum expression of FEZF2 separately at 3576 expression value to find any additional factors that can boost expression of forebrain genes. […] To find the set of factors that have the potential to optimize all 3 genes in this experiment, a new assessment was done through dynamic profile analysis with focus on maximal expression of OTX2, FEZF2 and SIX3.

[5] = test system: human pluripotent stem cells; test: HD-DoE stage 1, additional experiment: FEZF2 expression; assay type: cell-based
Procedure: To identify the recipe for stage 1 of differentiation, 96 different combinations of effectors generated using Design-of-Experiments compression through D-optimality were robotically prepared. The effector combinations were prepared in a basal media and were subsequently added to the cells, which were then allowed to differentiate. Three days later RNA extraction was performed, and gene expression was obtained using quantitative PCR analysis. The data were normalized and modeled using partial least squares regression analysis to the effector design, resulting in the generation of gene-specific models, which after model tuning for maximal Q2 predictive power, provided explanation of the effectors ability to control the expression of individual genes, combinatorically, and individually. Solutions within the tested space could then be explored to address desirability. To further enhance the conditions for forebrain differentiation from pluripotency, an additional HD-DoE experiment was performed. Additional gene regulatory models were obtained that were used for preparation of the differentiation protocol. The factors in this experiment included LDN193189, PD173074, BLU9931, Purmorphamine, SC79, MK2206, ZM336372, PD0325901, CHIR99021, XAV939, UCLA-GP130, Tofacitinib and GO6983. […] Dynamic profile analysis was also used to assess the interaction between the effectors.

In the case of `Oc1nc(-c2ccc(C(F)(F)F)cc2)nc2c1CSCC2` [XAV939], the “expression level of FEZF2 when the factor is removed” value ([1]; 2000 with all six factors) is reported as 1700, the “expression level of SIX3 when the factor is removed” value ([1]; 3000 with all six factors) is reported as 1000 and the “expression level of OTX2 when the factor is removed” value ([1]; 5500 with all six factors) is reported as 5000. For the same molecule, the “expression level of PAX6 when the factor is removed” value ([2]; 0 with all four factors) was 10000, the “expression level of NKX2-2 when the factor is removed” value ([2]; 100 with all four factors) was 200 and the “expression level of NKX2-1 when the factor is removed” value ([2]; 5000 with all four factors) was 3000. The “impact on expression of NKX2-1” value [3] was “increase; also recorded: Positive impact”, the “impact on expression of OTX2” value ([4]; dynamic profile / model, in words) was “positive impact” and the “factor contribution, expression of SIX3” value ([4]; positive impact, model optimized for maximal SIX3, 3-day treatment, qPCR) was 5. For the same molecule, the “impact on expression of FEZF2” value ([5]; dynamic profile, in words) was “positive impact” and the “factor contribution, expression of FEZF2” value ([5]; positive impact, additional stage 1 experiment optimized for FEZF2) was 12.

Reference: US20250092360A1, “METHODS AND COMPOSITIONS FOR GENERATING SOMATOSTATIN+ INTERNEURONS FROM HUMAN FOREBRAIN NEURAL PROGENITOR CELLS” (Trailhead Biosystems Inc., priority 2023, published 2025)
